Common to all, as to type: cell-based
Assay [1] deals with cardiac fibroblast RAT-iCell-C002. The assay can be described thus: Anti-fibrosis activity test: inhibition of proliferation of cardiac fibroblast RAT-iCell-C002 (CCK-8). The note with it: Cardiac fibroblast, 48 h, cardiac fibroblast RAT-iCell-C002, CCK-8, 48 hours. An outline of the steps:
(§1)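 Cells were seeded at 2×10^4 cells/mL and allowed to adhere for 24 h at 37° C, 5% CO2, then exposed to graded compound concentrations in triplicate for 48 h. CCK-8 was added for 2 h, A450 was read, and IC50 was derived from inhibition rate = (1−Ai/Ao)×100%.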

Assay [2] has as its system human embryonic lung fibroblast IMR-90. The assay can be described thus: Anti-fibrosis activity test: inhibition of proliferation of human embryonic lung fibroblast IMR-90 (CCK-8). As to conditions: human embryonic lung fibroblast IMR-90, CCK-8, 48 hours. An outline of the steps:
as §1

Another assay concerns BHK-21 cells. The assay can be described thus: Anti-fibrosis activity test: inhibition of BHK-21 cell proliferation (CCK-8). As to conditions: Mesocricetus auratus, BHK-21, 48 h, CCK-8, 48 hours after administration. The procedure, abridged:
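BHK-21 cells seeded at 2×10^4 cells/mL, allowed to adhere 24 h at 37° C, 5% CO2, then exposed to compounds at graded concentrations in triplicate for 48 h. CCK-8 added for 2 h and absorbance read at 450 nm; inhibition rate taken as (1−Ai/Ao)×100% and IC50 fitted.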

The subject of assay [3] is human lung fibroblasts HFL1. The assay can be described thus: Anti-fibrosis activity test: inhibition of proliferation of human lung fibroblasts HFL1 (CCK-8). The note with it: Homo sapiens, HFL1, 48 h, human lung fibroblasts HFL1, CCK-8, 48 hours. An outline of the steps: as §1
Assay [4] deals with human fibrosarcoma cells HT-1080. The assay can be described thus: Anti-fibrosis activity test: inhibition of proliferation of human fibrosarcoma cells HT-1080 (CCK-8). As to conditions: Homo sapiens, HT-1080, 48 h, human fibrosarcoma cells HT-1080, CCK-8, 48 hours. The procedure, abridged: as §1
Assay [5] has as its system human hepatic stellate cells LX-2. The assay can be described thus: Anti-fibrosis activity test: inhibition of proliferation of human hepatic stellate cells LX-2 (CCK-8). As to conditions: Homo sapiens, 48 h, human hepatic stellate cells LX-2, CCK-8, 48 hours. The procedure, abridged: as §1
A further assay deals with NF-κB. The assay can be described thus: Immunological activity test: inhibition of NF-κB activity. As to conditions: initial concentration of 30 μM; a/b isomers given as first/second symbol; read-out: IC50 (μM), inhibitory activity against NF-κB. An excerpt:
Main references for immunological activity test of the compounds of the present application includes: Vogl, S.; Atanasov, A. G.; Binder, M.; Bulusu, M.; Zehl, M.; Fakhrudin, N.; Heiss, E. H.; Picker, P.; Wawrosch, C.; Saukel, J.; Reznicek, G.; Urban, E.; Bochkov, V.; Dirsch, V. M.; Kopp, B. J. Evid-Based Complementary Alern. Med. 2013, ID 395316. Commercially available parthenolide was utilized as a positive control.
The ability of the compounds of the present application to inhibit NF-κB activity was tested at an initial concentration of 30 μM.
The assay data for the compounds of the present application were further analyzed to determine their IC50 values.

The test system of assay [6] is human dermal fibroblasts CCC-ESF-1. The assay can be described thus: Anti-fibrosis activity test: inhibition of proliferation of human dermal fibroblasts CCC-ESF-1 (CCK-8). As to conditions: Fibroblast; human dermal fibroblasts CCC-ESF-1, CCK-8, 48 hours. An outline of the steps:
as §1

The IC50 is the midpoint of a concentration-inhibition curve. As to `N#Cc1ccc2c(=O)c3c(n(Cc4cccc(F)c4)c2c1)-c1cccn1C3=O` [Compound 515a, 4-(3-Fluorobenzyl)-9,10-dioxo-4,10-dihydro-9H-pyrrolizino[1,2-b]quinoline-6-carbonitrile], the IC50 was 0.05 to 5 mM in assay [1]; 0.05 to 5 mM in assay [2]; 0.05 to 5 mM with BHK-21 cells; 0.05 to 5 mM in assay [3]; 5 to 20 mM in assay [4]; 0.05 to 5 mM in assay [5]. For the same compound, the IC50 fell in the range of 1 to 10 µM with NF-κB and 0.05 to 5 mM in assay [6].
For `N#Cc1ccc2c(OCc3cccc(F)c3)c3c(nc2c1)-c1cccn1C3=O` [Compound 515b, 9-((3-fluorobenzyl)oxy)-10-oxo-10H-pyrrolizino[1,2-b]quinoline-6-carbonitrile], the IC50 in assay [1] was below 0.05 mM; in assay [2], 5 to 20 mM; in the assay with BHK-21 cells, 0.05 to 5 mM; in assay [3] it was 0.05 to 5 mM; in assay [4], 5 to 20 mM; in assay [5], 0.05 to 5 mM. The IC50 in the assay with NF-κB lay in the range of 1 to 10 µM; in assay [6], 0.05 to 5 mM.
Consider `N#Cc1ccc2c(=O)c3c(n(Cc4ccccc4F)c2c1)-c1cccn1C3=O` [Compound 516a, 4-(2-Fluorobenzyl)-9,10-dioxo-4,10-dihydro-9H-pyrrolizino[1,2-b]quinoline-6-carbonitrile], for which the IC50 in assay [1] was 0.05 to 5 mM; in assay [2] it was 0.05 to 5 mM; in the assay with BHK-21 cells, below 0.05 mM; in assay [3], 0.05 to 5 mM; in assay [4], 0.05 to 5 mM; in assay [5] it was 0.05 to 5 mM. In addition, the values for the IC50 (with NF-κB; in assay [6]) were 0.1 to 1 µM and 0.05 to 5 mM, respectively.
Turning to `N#Cc1ccc2c(OCc3ccccc3F)c3c(nc2c1)-c1cccn1C3=O` [Compound 516b, 9-((2-fluorobenzyl)oxy)-10-oxo-10H-pyrrolizino[1,2-b]quinoline-6-carbonitrile], the IC50 (in assay [1]; in assay [2]; in the assay with BHK-21 cells; in assay [3]; in assay [4]; in assay [5]) was 0.05 to 5 mM each time. The values for the IC50 (in the assay with NF-κB; in assay [6]) were 0.1 to 1 µM and 0.05 to 5 mM, respectively.
For the compound `O=C1c2c(n(Cc3ccc(Cl)cc3)c3cc(C(F)(F)F)ccc3c2=O)-c2cccn21` [Compound 544a, 4-(4-Chlorobenzyl)-6-(trifluoromethyl)-9H-pyrrolizino[1,2-b]quinoline-9,10(4H)-dione], the IC50 in assay [1] is 0.05 to 5 mM; in assay [2] it was 0.05 to 5 mM; with BHK-21 cells, below 0.05 mM; in assay [3] it was 0.05 to 5 mM; in assay [4] it was 0.05 to 5 mM; in assay [5], 0.05 to 5 mM. The figures for the IC50 (in the assay with NF-κB; in assay [6]) were 10 to 50 µM and 0.05 to 5 mM, respectively.
`O=C1c2c(nc3cc(C(F)(F)F)ccc3c2OCc2ccc(Cl)cc2)-c2cccn21` [Compound 544b, 9-((4-chlorobenzyl)oxy)-6-(trifluoromethyl)-10H-pyrrolizino[1,2-b]quinolin-10-one]: the IC50 (in assay [1]; in assay [2]; with BHK-21 cells; in assay [3]; in assay [4]; in assay [5]) was 0.05 to 5 mM in each case. Moreover, the IC50 in the assay with NF-κB fell in the range of 1 to 10 µM; in assay [6] it was 0.05 to 5 mM.
In the case of `O=C1c2c(n(Cc3cccc(Cl)c3)c3cc(C(F)(F)F)ccc3c2=O)-c2cccn21` [Compound 545a, 4-(3-Chlorobenzyl)-6-(trifluoromethyl)-9H-pyrrolizino[1,2-b]quinoline-9,10(4H)-dione], the 50% inhibitory concentration (IC50) in assay [1] lay within 0.05 to 5 mM; in assay [2] it was 0.05 to 5 mM; with BHK-21 cells, 0.05 to 5 mM; in assay [3] it was 0.05 to 5 mM; in assay [4] it was 5 to 20 mM; in assay [5] it was 0.05 to 5 mM. Moreover, the IC50 in the assay on NF-κB was 1 to 10 µM; in assay [6], 0.05 to 5 mM.
As to `O=C1c2c(nc3cc(C(F)(F)F)ccc3c2OCc2cccc(Cl)c2)-c2cccn21` [Compound 545b, 9-((3-chlorobenzyl)oxy)-6-(trifluoromethyl)-10H-pyrrolizino[1,2-b]quinolin-10-one], the IC50 (in assay [1]; in assay [2]; in the assay with BHK-21 cells; in assay [3]; in assay [4]; in assay [5]) was 0.05 to 5 mM in each case. Also, the IC50 lay in the range of 1 to 10 µM in the assay on NF-κB and 0.05 to 5 mM in assay [6].
In the case of `O=C1c2c(n(Cc3ccccc3Cl)c3cc(C(F)(F)F)ccc3c2=O)-c2cccn21` [Compound 546a, 4-(2-Chlorobenzyl)-6-(trifluoromethyl)-9H-pyrrolizino[1,2-b]quinoline-9,10(4H)-dione], the IC50 in assay [1] is 0.05 to 5 mM; in assay [2], 0.05 to 5 mM; with BHK-21 cells it was below 0.05 mM; in assay [3], 0.05 to 5 mM; in assay [4], 0.05 to 5 mM; in assay [5], 0.05 to 5 mM. Moreover, the IC50 in the assay with NF-κB fell in the range of 1 to 10 µM; in assay [6] it was 0.05 to 5 mM.
Regarding `O=C1c2c(nc3cc(C(F)(F)F)ccc3c2OCc2ccccc2Cl)-c2cccn21` [Compound 546b, 9-((2-chlorobenzyl)oxy)-6-(trifluoromethyl)-10H-pyrrolizino[1,2-b]quinolin-10-one], the IC50 (in assay [1]; in assay [2]; in the assay on BHK-21 cells; in assay [3]; in assay [4]; in assay [5]) was 0.05 to 5 mM each time. In addition, the IC50 lay within 0.1 to 1 µM in the assay on NF-κB and 0.05 to 5 mM in assay [6].
Regarding `O=C1c2c(n(Cc3ccc(F)cc3)c3ccc(F)cc3c2=O)-c2cccn21` [Compound 617a, 7-Fluoro-4-(4-fluorobenzyl)-9H-pyrrolizino[1,2-b]quinoline-9,10(4H)-dione], the IC50 is 0.05 to 5 mM in assay [1]; 0.05 to 5 mM in assay [2]; below 0.05 mM in the assay on BHK-21 cells; 0.05 to 5 mM in assay [3]; 0.05 to 5 mM in assay [4]; 0.05 to 5 mM in assay [5]. The IC50 with NF-κB was in the range of 0.1 to 1 µM; in assay [6] it was 0.05 to 5 mM.
As for `O=C1c2c(nc3ccc(F)cc3c2OCc2ccc(F)cc2)-c2cccn21` [Compound 617b, 7-fluoro-9-((4-fluorobenzyl)oxy)-10H-pyrrolizino[1,2-b]quinolin-10-one], the IC50 (in assay [1]; in assay [2]; in the assay with BHK-21 cells; in assay [3]; in assay [4]; in assay [5]) was 0.05 to 5 mM each time. Moreover, the IC50 in the assay on NF-κB is 1 to 10 µM; in assay [6], 0.05 to 5 mM.
Consider `O=C1c2c(n(Cc3ccc(Cl)cc3)c3ccc(F)cc3c2=O)-c2cccn21` [Compound 618a, 4-(4-Chlorobenzyl)-7-fluoro-9H-pyrrolizino[1,2-b]quinoline-9,10(4H)-dione], for which the IC50 (in assay [1]; in assay [2]; in the assay on BHK-21 cells; in assay [3]; in assay [4]; in assay [5]) was 0.05 to 5 mM in each case. Further, the IC50 with NF-κB was in the range of 1 to 10 µM; in assay [6], 0.05 to 5 mM.
Consider `O=C1c2c(nc3ccc(F)cc3c2OCc2ccc(Cl)cc2)-c2cccn21` [Compound 618b, 9-((4-chlorobenzyl)oxy)-7-fluoro-10H-pyrrolizino[1,2-b]quinolin-10-one], for which the IC50 (in assay [1]; in assay [2]; in the assay on BHK-21 cells; in assay [3]; in assay [4]; in assay [5]) was 0.05 to 5 mM in each case. The results for the IC50 (with NF-κB; in assay [6]) were 1 to 10 µM and 0.05 to 5 mM, respectively.
Take `N#Cc1ccc(Cn2c3c(c(=O)c4cc(F)ccc42)C(=O)n2cccc2-3)cc1` [Compound 619a, 4-((7-Fluoro-9,10-dioxo-9H-pyrrolizino[1,2-b]quinolin-4(10H)-yl)methyl)benzonitrile]: the IC50 (in assay [1]; in assay [2]; in the assay on BHK-21 cells; in assay [3]; in assay [4]; in assay [5]) was 0.05 to 5 mM in each case. Moreover, the IC50 in the assay with NF-κB was 1 to 10 µM; in assay [6] it was below 0.05 mM.
For `N#Cc1ccc(COc2c3c(nc4ccc(F)cc24)-c2cccn2C3=O)cc1` [Compound 619b, 4-(((7-fluoro-10-oxo-10H-pyrrolizino[1,2-b]quinolin-9-yl)oxy)methyl)benzonitrile], the 50% inhibitory concentration (IC50) (in assay [1]; in assay [2]; with BHK-21 cells; in assay [3]; in assay [4]; in assay [5]) was 0.05 to 5 mM each time. In addition, the IC50 with NF-κB is 1 to 10 µM; in assay [6], below 0.05 mM.
